ChEMBL document CHEMBL1201862, “PubChem BioAssay data set” (2004)
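Protocol summary: plate cells (96-well), add compound at 5 concentrations, incubate 48 h, interpolate endpoints linearly. The concentration for 50% growth inhibition is given as GI50.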 Calls of active or inactive are those of the source. No stated cut-off is given here; in the data, active = GI50 up to about 1.1 µM and inactive = higher.

Columns and labels:
Assay in all cases: NCI anticancer screen, dose series, 48 h
[1] = tested on: 786-0
[2] = tested on: A498
[3] = tested on: A549
[4] = tested on: ACHN
[5] = tested on: CAKI-1
[6] = tested on: CCRF-CEM
[7] = tested on: COLO 205
[8] = tested on: DU-145
[9] = tested on: EKVX
[10] = tested on: HCC 2998
[11] = tested on: HCT-15
[12] = tested on: HL-60
[13] = tested on: HOP-62
[14] = tested on: HOP-92
[15] = tested on: HT-29
[16] = tested on: Hs-578T
[17] = tested on: IGROV-1
[18] = tested on: K562
[19] = tested on: KM12
[20] = tested on: LOX IMVI
[21] = tested on: M14
[22] = tested on: MCF7
[23] = tested on: MDA-MB-231
[24] = tested on: MDA-MB-435
[25] = tested on: MDA-N
[26] = tested on: MOLT-4
[27] = tested on: Malme-3M
[28] = tested on: NCI-H226
[29] = tested on: NCI-H23
[30] = tested on: NCI-H460
[31] = tested on: NCI-H522
[32] = tested on: NCI/ADR-RES
[33] = tested on: OVCAR-3
[34] = tested on: OVCAR-4
[35] = tested on: OVCAR-5
[36] = tested on: OVCAR-8
[37] = tested on: PC-3
[38] = tested on: RPMI-8226
[39] = tested on: RXF 393
[40] = tested on: SF-268
[41] = tested on: SF-295
[42] = tested on: SF-539
[43] = tested on: SK-MEL-28
[44] = tested on: SK-MEL-2
[45] = tested on: SK-MEL-5
[46] = tested on: SK-OV-3
[47] = tested on: SNB-19
[48] = tested on: SNB-75
[49] = tested on: SR
[50] = tested on: SW-620
[51] = tested on: T47D
[52] = tested on: TK-10
[53] = tested on: U-251
[54] = tested on: UACC-257
[55] = tested on: UACC-62
[56] = tested on: UO-31

## C=CC1(C)OC2(CCN(C(=O)OCC)CC2)OC1C (stereo unspecified)
[1]
  GI50: > 100 µM (inactive)
[2]
  GI50: > 100 µM (inactive)
[3]
  GI50: > 100 µM (inactive)
[4]
  GI50: > 100 µM (inactive)
[5]
  GI50: > 100 µM (inactive)
[6]
  GI50: > 100 µM (inactive)
[7]
  GI50: > 100 µM (inactive)
[8]
  GI50: > 100 µM (inactive)
[9]
  GI50: > 100 µM (inactive)
[10]
  GI50: > 100 µM (inactive)
[11]
  GI50: > 100 µM
[12]
  GI50: > 100 µM (inactive)
[13]
  GI50: > 100 µM (inactive)
[14]
  GI50: > 100 µM (inactive)
[15]
  GI50: > 100 µM (inactive)
[16]
  GI50: > 100 µM (inactive)
[17]
  GI50: > 100 µM (inactive)
[18]
  GI50: 45.7 µM (inactive)
[19]
  GI50: > 100 µM (inactive)
[20]
  GI50: > 100 µM (inactive)
[21]
  GI50: > 100 µM (inactive)
[22]
  GI50: > 100 µM (inactive)
[23]
  GI50: > 100 µM (inactive)
[24]
  GI50: > 100 µM (inactive)
[25]
  GI50: > 100 µM (inactive)
[26]
  GI50: 34.8 µM (inactive)
[27]
  GI50: > 100 µM (inactive)
[28]
  GI50: > 100 µM (inactive)
[29]
  GI50: > 100 µM (inactive)
[30]
  GI50: > 100 µM (inactive)
[31]
  GI50: > 100 µM (inactive)
[32]
  GI50: > 100 µM (inactive)
[33]
  GI50: > 100 µM (inactive)
[34]
  GI50: > 100 µM (inactive)
[35]
  GI50: > 100 µM (inactive)
[36]
  GI50: > 100 µM (inactive)
[37]
  GI50: > 100 µM (inactive)
[38]
  GI50: > 100 µM (inactive)
[39]
  GI50: > 100 µM (inactive)
[40]
  GI50: > 100 µM (inactive)
[41]
  GI50: > 100 µM (inactive)
[42]
  GI50: > 100 µM (inactive)
[43]
  GI50: > 100 µM (inactive)
[44]
  GI50: > 100 µM (inactive)
[45]
  GI50: > 100 µM (inactive)
[46]
  GI50: > 100 µM (inactive)
[47]
  GI50: > 100 µM (inactive)
[48]
  GI50: > 100 µM (inactive)
[49]
  GI50: > 100 µM (inactive)
[50]
  GI50: > 100 µM (inactive)
[51]
  GI50: > 100 µM (inactive)
[52]
  GI50: > 100 µM (inactive)
[53]
  GI50: > 100 µM (inactive)
[54]
  GI50: > 100 µM (inactive)
[55]
  GI50: > 100 µM (inactive)
[56]
  GI50: > 100 µM (inactive)
